System: Myo-X
Assay: Myo-X expression by double immunolabelling in normal human melanocytes
Type: cell-based
Description: Immunofluorescence staining: For EM:KC co-culture studies fully matched melanocytes (p4) and keratinocytes (p2) were seeded onto 8-well Lab-Tek® chamber slides at a cell density of 1×10^4 cells/well and in a ratio of 1 melanocyte to 10 keratinocytes. Co-cultures were maintained overnight (16 h) in a mixture of full K-SFM and MEM (co-culture medium) to allow cell attachment, followed by medium replenishment for a further 24 h. Cells were then fixed in ice-cold methanol for 10 min at −20° C., washed in PBS and then blocked with 10% donkey serum for the detection of protein expression in filopodia.
For double labelling experiments the first primary antibody, Myo-X (1:100) (Santa Cruz, Calif., USA) was applied overnight at 4° C., followed by incubation with FITC-conjugated secondary antibody (1:100) for 1 h at room temperature. The second primary antibody, either cytokeratin (1:100) (Abeam, Cambridge, UK) or β-Actin (1:100) (Santa Cruz, USA) or Fascin (1:100) (Santa Cruz, USA) or NKi/beteb (1:30) (Monosan) was applied for 1 h at room temperature followed by a TRITC-conjugated secondary antibody (1:100) (Jackson Immunoresearch Laboratories, Inc., West Grove, USA). DAPI (Vector Laboratories, Burlingame, Calif.) was used to stain nuclei. Images were captured with a cooled Hamamatsu digital camera using a 100× objective and post-processed using Paint Shop Pro (Jasc Software Ver. 7. CA, USA). Negative controls included the omission of primary antibody and replacement with non-immune serum from secondary antibody host and inclusion of secondary antibodies.
Myo-X was also detected in EM filopodia.

## CC(C)Cn1c(=O)n(C)c(=O)c2[nH]cnc21 [IBMX]
Compared with untreated cells
  Myo-X expression in EM (immunolabelling, words): increased the expression of Myo-X
  Myo-X localization in EM filopodia: enhanced Myo-X localization in EM filopodia
Total number of yellow spots beyond EM dendritic tips
  overall number of filopodia: increased
